Test results reported in ChEMBL document CHEMBL1141991, “Functionalized dendrimers as endotoxin sponges” (Bioorg Med Chem Lett, 2005).

Key:
[1] = Inhibitory concentration against lipopolysaccharide in BC fluorescenced murine macrophages J774A; format: functional, Mus musculus
[2] = species on record: Mus musculus; assay: Effective dose against lipopolysaccharide in BC fluorescenced murine macrophages J774A; format: functional

IC50 [1] | Sequence | ED50 [2]
210 µM | POLYMYXIN B [listing 1 of 2 here] | 
 | POLYMYXIN B [listing 2 of 2 here] | 0.31 µM
